# Experimental data taken from PubChem BioAssay AID493144 (Sanford-Burnham Center for Chemical Genomics, 2011).
# pIC50: −log10 of the molar value. The source made the active and inactive calls. How the calls were made is not given here.
# Target: Intestinal-type alkaline phosphatase (Homo sapiens) (UniProt P09923)
# Test: human IAP inhibitors, SAR follow-up, mouse IAP inhibitor project, biochemical, human enzyme for mouse series (AID 493144)
# Conditions: purified human intestinal alkaline phosphatase, enzymatic activity
# Chain of Intestinal-type alkaline phosphatase (Homo sapiens) (P09923 whole entry, looked up): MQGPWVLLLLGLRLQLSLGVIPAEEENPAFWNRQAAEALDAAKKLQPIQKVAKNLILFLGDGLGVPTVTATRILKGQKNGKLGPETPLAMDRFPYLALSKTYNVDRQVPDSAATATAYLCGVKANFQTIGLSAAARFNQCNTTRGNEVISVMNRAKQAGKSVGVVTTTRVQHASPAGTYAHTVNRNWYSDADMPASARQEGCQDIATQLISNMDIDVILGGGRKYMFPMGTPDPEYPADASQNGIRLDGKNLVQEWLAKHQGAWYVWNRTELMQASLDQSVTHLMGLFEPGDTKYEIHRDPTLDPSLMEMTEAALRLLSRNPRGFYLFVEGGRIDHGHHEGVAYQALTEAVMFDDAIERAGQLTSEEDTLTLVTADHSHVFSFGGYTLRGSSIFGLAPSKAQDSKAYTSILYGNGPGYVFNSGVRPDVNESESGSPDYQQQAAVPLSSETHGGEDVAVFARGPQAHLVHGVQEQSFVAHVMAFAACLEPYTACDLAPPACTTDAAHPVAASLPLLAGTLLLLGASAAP
IC50,pIC50,SMILES
> 100 µM (inactive),–,S=C(NCCC(c1ccccc1)c1ccccc1)Nc1ccc(Nc2ccccc2)cc1
> 100 µM (inactive),–,O=C(CN1C(=O)/C(=C\c2ccco2)SC1=S)Nc1ccccc1C(=O)O
> 100 µM (inactive),–,Cn1cc(CN2CCC(C(=O)Nc3cccc(-c4cccc(Cl)c4)c3)CC2)cn1
> 100 µM (inactive),–,COc1cccc(-c2cccc(NC(=O)C3CCN(Cc4ccc(CO)o4)CC3)c2)c1
> 100 µM (inactive),–,COc1cc([N+](=O)[O-])ccc1NC(=S)NCCC(c1ccccc1)c1ccccc1
> 100 µM (inactive),–,S=C(NCCC(c1ccccc1)c1ccccc1)Nc1cccc(Cl)c1
> 100 µM (inactive),–,CCn1nc(C)c(CN2CCC(C(=O)Nc3cccc(-c4cccc(Cl)c4)c3)CC2)c1C
> 100 µM (inactive),–,Cc1c(CN2CCC(C(=O)Nc3cccc(-c4cccc(Cl)c4)c3)CC2)cnn1C
> 100 µM (inactive),–,COc1ccc(Cl)cc1Nc1nc(-c2ccc(O)c(O)c2)cs1
> 100 µM (inactive),–,O=C(Nc1cccc(-c2cccc(F)c2)c1)C1CCN(Cc2ccc(CO)o2)CC1
> 100 µM (inactive),–,S=C(NCCC(c1ccccc1)c1ccccc1)Nc1ccc(Cl)cc1Cl
> 100 µM (inactive),–,CCCn1ncc(CN2CCC(C(=O)Nc3cccc(-c4cccc(F)c4)c3)CC2)c1C
> 100 µM (inactive),–,COc1cccc(-c2cccc(NC(=O)C3CCN(Cc4ccc(C)o4)CC3)c2)c1
> 100 µM (inactive),–,S=C(NCCC(c1ccccc1)c1ccccc1)Nc1ccc(Cl)cc1
> 100 µM (inactive),–,O=S(=O)(Nc1ncccn1)c1ccc(NC(=S)NCCC(c2ccccc2)c2ccccc2)cc1
> 100 µM (inactive),–,O=[N+]([O-])c1ccc(NC(=S)NCCC(c2ccccc2)c2ccccc2)cc1
> 100 µM (inactive),–,COC(=O)c1cc(NC(=S)NCCC(c2ccccc2)c2ccccc2)cc(C(=O)OC)c1
> 100 µM (inactive),–,Cc1nn(C)c(Cl)c1CN1CCC(C(=O)Nc2cccc(-c3cccc(F)c3)c2)CC1
> 100 µM (inactive),–,Fc1ccccc1NC(=S)NCCC(c1ccccc1)c1ccccc1
> 100 µM (inactive),–,Cc1cc(=O)oc2cc(NC(=S)NCCC(c3ccccc3)c3ccccc3)ccc12

IC50,pIC50,SMILES
> 100 µM (inactive),–,O=C(CN1C(=O)/C(=C/c2ccco2)SC1=S)Nc1cccc(C(=O)O)c1
> 100 µM (inactive),–,CCn1nc(C)c(CN2CCC(C(=O)Nc3cccc(-c4cccc(F)c4)c3)CC2)c1C
> 100 µM (inactive),–,COc1ccc(NC(=S)NCCC(c2ccccc2)c2ccccc2)cc1
> 100 µM (inactive),–,CN(C)S(=O)(=O)c1cccc(NC(=S)NCCC(c2ccccc2)c2ccccc2)c1
> 100 µM (inactive),–,CCN1CCN(S(=O)(=O)c2ccc3[nH]c(=O)oc3c2)CC1
> 100 µM (inactive),–,C=CCn1cc(CN2CCC(C(=O)Nc3cccc(-c4cccc(Cl)c4)c3)CC2)c(C)n1
> 100 µM (inactive),–,Cn1cc(CN2CCC(C(=O)Nc3cccc(-c4cccc(F)c4)c3)CC2)cn1
–,4.85,CCn1c(SCC(=O)c2ccc(O)c(O)c2)nnc1-c1ccccc1OC
> 100 µM (inactive),–,CCOC(=O)c1ccc(NC(=S)NCCC(c2ccccc2)c2ccccc2)cc1
> 100 µM (inactive),–,Cc1ccc(NC(=S)NCCC(c2ccccc2)c2ccccc2)cc1C
> 100 µM (inactive),–,Cc1cc(C)cc(NC(=S)NCCC(c2ccccc2)c2ccccc2)c1
> 100 µM (inactive),–,O=C(CN1C(=O)/C(=C/c2ccco2)SC1=S)Nc1ccc(C(=O)O)cc1
> 100 µM (inactive),–,CCn1cc(CN2CCC(C(=O)Nc3cccc(-c4cccc(OC)c4)c3)CC2)c(C)n1
> 100 µM (inactive),–,FC(F)(F)c1cccc(NC(=S)NCCC(c2ccccc2)c2ccccc2)c1
> 100 µM (inactive),–,CCn1cc(CN2CCC(C(=O)Nc3cccc(-c4cccc(Cl)c4)c3)CC2)cn1
> 100 µM (inactive),–,Cc1cccc(NC(=S)NCCC(c2ccccc2)c2ccccc2)c1C
> 100 µM (inactive),–,COc1ccc(C(=O)CSc2n[nH]c(-c3ccccc3)n2)cc1OC
> 100 µM (inactive),–,Cc1nn(C(C)C)c(C)c1CN1CCC(C(=O)Nc2cccc(-c3cccc(F)c3)c2)CC1
> 100 µM (inactive),–,COc1cccc(NC(=S)NCCC(c2ccccc2)c2ccccc2)c1
> 100 µM (inactive),–,O=C(Nc1cccc(-c2cccc(Cl)c2)c1)C1CCN(C2CCC2)CC1

# Further lines, the molecule ahead of its results:
SMILES,IC50,pIC50
COCc1ccc(CN2CCC(C(=O)Nc3cccc(-c4cccc(Cl)c4)c3)CC2)o1,> 100 µM (inactive),–
Cc1ccc(NC(=S)NCCC(c2ccccc2)c2ccccc2)cc1,> 100 µM (inactive),–
CC1(c2ccccc2)CC(C)(C)N(C(=S)Nc2ccccc2)c2ccccc21 (stereo not drawn),> 100 µM (inactive),–
COc1cc(NC(=S)NCCC(c2ccccc2)c2ccccc2)cc(OC)c1,> 100 µM (inactive),–
Fc1ccc(NC(=S)NCCC(c2ccccc2)c2ccccc2)cc1Cl,> 100 µM (inactive),–
CCn1cc(CN2CCC(C(=O)Nc3cccc(-c4cccc(F)c4)c3)CC2)cn1,> 100 µM (inactive),–
O=C(Nc1cccc(-c2cccc(Cl)c2)c1)C1CCN(Cc2ccc(CO)o2)CC1,> 100 µM (inactive),–
CCn1cc(CN2CCC(C(=O)Nc3cccc(-c4cccc(OC)c4)c3)CC2)cn1,> 100 µM (inactive),–
Cc1c(Cl)cccc1Nc1nc(-c2ccc(O)c(O)c2)cs1,> 100 µM (inactive),–
CC(C)n1cc(CN2CCC(C(=O)Nc3cccc(-c4cccc(Cl)c4)c3)CC2)cn1,> 100 µM (inactive),–
S=C(NCCC(c1ccccc1)c1ccccc1)Nc1ccccc1,> 100 µM (inactive),–
Cc1ccc(NC(=O)CCNS(=O)(=O)c2ccc3[nH]c(=O)oc3c2)cc1C,> 100 µM (inactive),–
CC(C)n1cc(CN2CCC(C(=O)Nc3cccc(-c4cccc(F)c4)c3)CC2)cn1,> 100 µM (inactive),–
CCc1ccccc1Nc1nc(-c2ccc(O)c(O)c2)cs1,–,4.67
Cc1ccc(CN2CCC(C(=O)Nc3cccc(-c4cccc(F)c4)c3)CC2)o1,> 100 µM (inactive),–
CC(C)N1CCC(=NNC(=O)c2cc(O)c(O)c(O)c2)CC1,> 100 µM (inactive),–
CCn1ncc(CN2CCC(C(=O)Nc3cccc(-c4cccc(F)c4)c3)CC2)c1C,> 100 µM (inactive),–
CC(C)c1ccccc1NC(=S)NCCC(c1ccccc1)c1ccccc1,> 100 µM (inactive),–
CN1CCC(=NNC(=O)c2cc(O)c(O)c(O)c2)CC1,> 100 µM (inactive),–
Cc1cc(Cl)ccc1NC(=S)NCCC(c1ccccc1)c1ccccc1,> 100 µM (inactive),–
Cc1ccc(C)c(NC(=S)NCCC(c2ccccc2)c2ccccc2)c1,> 100 µM (inactive),–
Cc1c(Cl)cccc1NC(=S)NCCC(c1ccccc1)c1ccccc1,> 100 µM (inactive),–
Cc1cc(NC(=O)CCNS(=O)(=O)c2ccc3[nH]c(=O)oc3c2)ccc1Br,> 100 µM (inactive),–
Oc1ccc(-c2csc(Nc3cccc4ccccc34)n2)cc1O,–,4.36
C=CCn1cc(CN2CCC(C(=O)Nc3cccc(-c4cccc(F)c4)c3)CC2)c(C)n1,> 100 µM (inactive),–
S=C(NCCC(c1ccccc1)c1ccccc1)Nc1ccc(Cl)c(Cl)c1,> 100 µM (inactive),–
NS(=O)(=O)c1ccc(NC(=S)NCCC(c2ccccc2)c2ccccc2)cc1,> 100 µM (inactive),–
COc1ccc(Cl)cc1NC(=S)NCCC(c1ccccc1)c1ccccc1,> 100 µM (inactive),–
